Experimental data published in ChEMBL document CHEMBL5625172, “Synthesis and evaluation of dihydrofuro[2,3-b]pyridine derivatives as potent IRAK4 inhibitors” (Eur J Med Chem, 2023).
The source made the active and inactive calls. The calls are words filed in the database; no cut-off is given here.

What was measured:
[1] = Clearance in Sprague-Dawley rat at 2 mg/kg, iv measured after 5 mins to 24 hrs by LC-MS analysis; assay type: ADME, organism-based; details: in vivo, time 5-1440 min
[2] = Oral bioavailability in Sprague-Dawley rat at 5 to 10 mg/kg measured after 0.25 to 24 hrs by LC-MS analysis; assay type: ADME, organism-based; details: in vivo, dose lower 5 mg/kg, time lower 0.25 hrs, dose upper 10 mg/kg, time upper 24 hrs
[3] = target: Mitogen-activated protein kinase kinase kinase 5 (Homo sapiens, UniProt Q99683); assay: Inhibition of ASK1 (unknown origin) by scintillation proximity assay
[4] = target: Tyrosine-protein kinase BTK (Homo sapiens, UniProt Q06187); assay: Inhibition of BTK (unknown origin) by scintillation proximity assay
[5] = target: Serine/threonine-protein kinase B-raf (Homo sapiens, UniProt P15056); assay: Inhibition of B-Raf (unknown origin) by scintillation proximity assay
[6] = target: Calcium/calmodulin-dependent protein kinase type 1 (Homo sapiens, UniProt Q14012); assay: Inhibition of CaMKI (unknown origin) by scintillation proximity assay
[7] = Inhibition of CDK2/cyclinA (unknown origin) by scintillation proximity assay; set-up: species or system Homo sapiens
[8] = target: CDK4/Cyclin D3 (Homo sapiens, UniProt P11802); assay: Inhibition of CDK4/cyclinD3 (unknown origin) by scintillation proximity assay; assay type: protein-complex assay
[9] = target: Dual specificity protein kinase CLK1 (Homo sapiens, UniProt P49759); assay: Inhibition of CLK1 (unknown origin) by scintillation proximity assay
[10] = target: Serine/threonine-protein kinase 17A (Homo sapiens, UniProt Q9UEE5); assay: Inhibition of DRAK1 (unknown origin) by scintillation proximity assay
[11] = target: Dual specificity tyrosine-phosphorylation-regulated kinase 1A (Homo sapiens, UniProt Q13627); assay: Inhibition of DYRK1A (unknown origin) by scintillation proximity assay
[12] = target: Epidermal growth factor receptor (Homo sapiens, UniProt P00533); assay: Inhibition of EGFR (unknown origin) by scintillation proximity assay
[13] = target: Receptor-type tyrosine-protein kinase FLT3 (Homo sapiens, UniProt P36888); assay: Inhibition of FLT3 (unknown origin) by scintillation proximity assay
[14] = target: MAP kinase-activated protein kinase 2 (Homo sapiens, UniProt P49137); assay: Inhibition of MAPKAP-K2 (unknown origin) by scintillation proximity assay
[15] = target: Homeodomain-interacting protein kinase 1 (Homo sapiens, UniProt Q86Z02); assay: Inhibition of HIPK1 (unknown origin) by scintillation proximity assay
[16] = target: Tyrosine-protein kinase JAK1 (Homo sapiens, UniProt P23458); assay: Inhibition of JAK1 (unknown origin) by scintillation proximity assay
[17] = target: Serine/threonine-protein kinase MRCK alpha (Homo sapiens, UniProt Q5VT25); assay: Inhibition of MRCKa (unknown origin) by scintillation proximity assay
[18] = target: Serine/threonine-protein kinase 38 (Homo sapiens, UniProt Q15208); assay: Inhibition of NDR1 (unknown origin) by scintillation proximity assay
[19] = target: Serine/threonine-protein kinase PAK 1 (Homo sapiens, UniProt Q13153); assay: Inhibition of PAK1 (unknown origin) by scintillation proximity assay
[20] = target: cAMP-dependent protein kinase catalytic subunit beta (Homo sapiens, UniProt P22694); assay: Inhibition of PKA-C beta (unknown origin) by scintillation proximity assay
[21] = target: Receptor-interacting serine/threonine-protein kinase 1 (Homo sapiens, UniProt Q13546); assay: Inhibition of RIPK1 (unknown origin) by scintillation proximity assay
[22] = target: Receptor-interacting serine/threonine-protein kinase 2 (Homo sapiens, UniProt O43353); assay: Inhibition of RIPK2 (unknown origin) by scintillation proximity assay
[23] = target: Interleukin-1 receptor-associated kinase 1 (Homo sapiens, UniProt P51617); assay: Binding affinity to IRAK1 (unknown origin) by kinomescan competition binding assay
[24] = Plasma protein binding in human by LC-MS analysis; assay type: ADME, cell-free; details: read-out: PPB
[25] = Plasma protein binding in CD-1 mouse by LC-MS analysis; assay type: ADME, cell-free; details: read-out: PPB (converted)
[26] = Plasma protein binding in Sprague-Dawley rat by LC-MS analysis; assay type: ADME, cell-free; details: read-out: PPB (converted)
[27] = Inhibition of LPS-induced TNFalpha mRNA expression in immortalized mouse BMDM cells preincubated for 2 hrs followed by LPS stimulation and measured after 16 hrs by qPCR analysis; assay type: functional, cell-based
[28] = Inhibition of LPS-induced IL-6 mRNA expression in immortalized mouse BMDM cells preincubated for 2 hrs followed by LPS stimulation and measured after 16 hrs by qPCR analysis; assay type: functional, cell-based
[29] = Inhibition of LPS-induced IL-6 mRNA expression in human PBMC cells preincubated for 2 hrs followed by LPS stimulation and measured after 16 hrs by qPCR analysis; assay type: functional, cell-based
[30] = Inhibition of LPS-induced TNFalpha protein expression in immortalized mouse BMDM cells preincubated for 2 hrs followed by LPS stimulation and measured after 16 hrs by ELISA; assay type: functional, cell-based
[31] = Inhibition of LPS-induced IL-6 protein expression in immortalized mouse BMDM cells preincubated for 2 hrs followed by LPS stimulation and measured after 16 hrs by ELISA; assay type: functional, cell-based
[32] = Inhibition of LPS-induced TNFalpha protein expression in human PBMC cells preincubated for 2 hrs followed by LPS stimulation and measured after 16 hrs by ELISA; assay type: functional, cell-based
[33] = system: Mus musculus; assay: In vivo inhibition of LPS-induced TNF-alpha protein level in C57BL/6 mouse assessed as reduction in TNF-alpha level in serum at 50 to 100 mg/kg, po administered for 1 hr followed by LPS stimulation and measured after 3 hrs by ELISA; assay type: functional, organism-based; details: dose 50-100 mg/kg, time 4.0 hrs
[34] = Clearance in Sprague-Dawley rat assessed as liver blood flow at 2 mg/kg, iv measured after 5 mins to 24 hrs by LC-MS analysis; assay type: ADME, organism-based; details: in vivo, time 5-1440 min
[35] = system: MEF; assay: Cytotoxicity against MEF cells at 3 uM; assay type: toxicity, cell-based; details: mouse
[36] = system: BMDM; assay: Cytotoxicity against immortalized mouse BMDM cells at 3 uM; assay type: toxicity, cell-based
[37] = Cytotoxicity against Splenocytes (unknown origin) at 3 uM; assay type: toxicity, cell-based; details: splenocyte
[38] = target: T1, Interleukin-1 receptor-associated kinase 4 (Homo sapiens, UniProt Q9NWZ3); assay: Inhibition of IRAK4 (unknown origin) using FAM-labeled peptide as substrate incubated for 10 mins in presence of ATP by mobility shift assay
T1 sequence (Q9NWZ3 whole entry): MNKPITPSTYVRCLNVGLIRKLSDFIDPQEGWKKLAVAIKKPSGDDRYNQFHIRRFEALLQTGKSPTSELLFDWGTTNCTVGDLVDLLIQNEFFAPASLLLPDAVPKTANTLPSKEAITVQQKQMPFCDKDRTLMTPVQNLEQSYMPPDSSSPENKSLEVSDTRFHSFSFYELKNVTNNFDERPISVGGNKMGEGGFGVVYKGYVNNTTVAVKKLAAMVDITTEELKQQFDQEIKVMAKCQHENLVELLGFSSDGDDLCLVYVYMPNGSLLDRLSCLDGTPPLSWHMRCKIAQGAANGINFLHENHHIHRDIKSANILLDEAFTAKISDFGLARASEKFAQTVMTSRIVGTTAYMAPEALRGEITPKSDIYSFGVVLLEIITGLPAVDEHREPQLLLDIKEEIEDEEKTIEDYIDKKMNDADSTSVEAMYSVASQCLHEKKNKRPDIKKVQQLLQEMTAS

Sequence of Receptor-type tyrosine-protein kinase FLT3 (P36888 whole entry): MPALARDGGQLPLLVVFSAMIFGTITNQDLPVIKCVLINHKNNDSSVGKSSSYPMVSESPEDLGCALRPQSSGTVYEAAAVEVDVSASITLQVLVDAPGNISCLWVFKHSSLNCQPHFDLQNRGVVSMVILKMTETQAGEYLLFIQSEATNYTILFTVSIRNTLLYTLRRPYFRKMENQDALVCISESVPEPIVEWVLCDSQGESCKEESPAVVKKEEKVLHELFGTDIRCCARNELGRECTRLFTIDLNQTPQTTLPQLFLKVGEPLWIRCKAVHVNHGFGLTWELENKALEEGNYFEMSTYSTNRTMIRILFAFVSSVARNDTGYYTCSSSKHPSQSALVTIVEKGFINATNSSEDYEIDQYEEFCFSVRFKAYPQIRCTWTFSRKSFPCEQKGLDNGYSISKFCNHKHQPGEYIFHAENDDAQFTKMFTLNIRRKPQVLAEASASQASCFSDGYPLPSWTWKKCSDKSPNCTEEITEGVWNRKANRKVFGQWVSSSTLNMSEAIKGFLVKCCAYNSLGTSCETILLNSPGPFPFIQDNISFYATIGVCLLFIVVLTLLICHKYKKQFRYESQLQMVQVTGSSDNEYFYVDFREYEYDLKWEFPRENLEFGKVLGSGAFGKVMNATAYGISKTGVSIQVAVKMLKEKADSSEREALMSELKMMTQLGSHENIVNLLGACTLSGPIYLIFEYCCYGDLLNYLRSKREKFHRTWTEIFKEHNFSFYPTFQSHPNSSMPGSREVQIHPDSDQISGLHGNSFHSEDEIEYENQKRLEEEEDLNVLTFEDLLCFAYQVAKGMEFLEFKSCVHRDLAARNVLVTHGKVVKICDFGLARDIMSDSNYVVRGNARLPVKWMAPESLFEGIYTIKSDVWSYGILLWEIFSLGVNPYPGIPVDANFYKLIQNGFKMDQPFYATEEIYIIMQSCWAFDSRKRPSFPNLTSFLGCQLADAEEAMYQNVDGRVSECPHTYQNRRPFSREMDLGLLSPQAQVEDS
Sequence of Serine/threonine-protein kinase PAK 1 (Q13153 whole entry): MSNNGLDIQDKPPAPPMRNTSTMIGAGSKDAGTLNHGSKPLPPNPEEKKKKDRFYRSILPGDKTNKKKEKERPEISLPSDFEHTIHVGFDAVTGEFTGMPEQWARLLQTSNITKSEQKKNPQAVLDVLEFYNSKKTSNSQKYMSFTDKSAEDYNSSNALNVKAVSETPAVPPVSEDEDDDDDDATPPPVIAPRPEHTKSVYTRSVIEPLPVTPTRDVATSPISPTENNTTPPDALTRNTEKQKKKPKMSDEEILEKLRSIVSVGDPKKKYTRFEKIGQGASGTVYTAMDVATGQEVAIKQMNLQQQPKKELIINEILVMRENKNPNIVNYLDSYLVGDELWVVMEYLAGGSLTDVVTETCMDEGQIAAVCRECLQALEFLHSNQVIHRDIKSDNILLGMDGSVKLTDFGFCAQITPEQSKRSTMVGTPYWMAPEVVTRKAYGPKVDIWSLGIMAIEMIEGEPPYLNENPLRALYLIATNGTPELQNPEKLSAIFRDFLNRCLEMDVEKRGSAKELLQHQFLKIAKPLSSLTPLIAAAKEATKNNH
Sequence of Mitogen-activated protein kinase kinase kinase 5 (Q99683 whole entry): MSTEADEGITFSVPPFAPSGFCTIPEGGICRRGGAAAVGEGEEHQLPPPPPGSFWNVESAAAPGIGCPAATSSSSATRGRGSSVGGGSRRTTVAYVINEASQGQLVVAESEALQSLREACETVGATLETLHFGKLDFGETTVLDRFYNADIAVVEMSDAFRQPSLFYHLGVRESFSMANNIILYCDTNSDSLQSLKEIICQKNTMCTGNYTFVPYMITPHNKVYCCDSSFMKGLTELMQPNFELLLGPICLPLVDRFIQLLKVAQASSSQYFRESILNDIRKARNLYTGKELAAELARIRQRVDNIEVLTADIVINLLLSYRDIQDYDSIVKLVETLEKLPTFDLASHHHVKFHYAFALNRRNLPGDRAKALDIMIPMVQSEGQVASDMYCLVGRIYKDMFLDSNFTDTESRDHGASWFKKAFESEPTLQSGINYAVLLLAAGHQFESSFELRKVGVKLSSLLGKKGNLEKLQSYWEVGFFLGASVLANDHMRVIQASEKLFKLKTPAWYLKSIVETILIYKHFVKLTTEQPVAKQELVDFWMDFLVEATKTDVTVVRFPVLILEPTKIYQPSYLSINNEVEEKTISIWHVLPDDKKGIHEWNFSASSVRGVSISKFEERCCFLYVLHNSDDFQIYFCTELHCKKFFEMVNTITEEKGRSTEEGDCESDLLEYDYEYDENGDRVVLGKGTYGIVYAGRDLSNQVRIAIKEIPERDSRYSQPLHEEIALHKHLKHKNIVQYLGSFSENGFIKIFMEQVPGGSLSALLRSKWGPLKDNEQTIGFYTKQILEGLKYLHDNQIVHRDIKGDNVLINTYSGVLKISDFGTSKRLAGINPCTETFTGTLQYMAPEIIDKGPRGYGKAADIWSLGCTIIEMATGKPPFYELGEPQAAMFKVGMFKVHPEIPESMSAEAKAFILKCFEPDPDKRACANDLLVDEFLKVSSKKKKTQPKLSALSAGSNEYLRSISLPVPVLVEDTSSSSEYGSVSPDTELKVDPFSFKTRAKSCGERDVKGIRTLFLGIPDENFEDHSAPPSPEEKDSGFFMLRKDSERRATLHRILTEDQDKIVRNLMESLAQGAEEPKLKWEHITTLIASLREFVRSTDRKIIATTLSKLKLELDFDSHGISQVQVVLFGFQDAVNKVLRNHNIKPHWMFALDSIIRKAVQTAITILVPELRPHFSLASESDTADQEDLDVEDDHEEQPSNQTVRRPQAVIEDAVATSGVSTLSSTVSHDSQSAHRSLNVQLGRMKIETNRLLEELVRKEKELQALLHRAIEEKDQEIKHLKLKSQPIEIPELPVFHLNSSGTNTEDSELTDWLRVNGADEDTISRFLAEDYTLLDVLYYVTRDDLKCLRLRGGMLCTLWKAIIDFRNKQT
Sequence of Receptor-interacting serine/threonine-protein kinase 2 (O43353 whole entry): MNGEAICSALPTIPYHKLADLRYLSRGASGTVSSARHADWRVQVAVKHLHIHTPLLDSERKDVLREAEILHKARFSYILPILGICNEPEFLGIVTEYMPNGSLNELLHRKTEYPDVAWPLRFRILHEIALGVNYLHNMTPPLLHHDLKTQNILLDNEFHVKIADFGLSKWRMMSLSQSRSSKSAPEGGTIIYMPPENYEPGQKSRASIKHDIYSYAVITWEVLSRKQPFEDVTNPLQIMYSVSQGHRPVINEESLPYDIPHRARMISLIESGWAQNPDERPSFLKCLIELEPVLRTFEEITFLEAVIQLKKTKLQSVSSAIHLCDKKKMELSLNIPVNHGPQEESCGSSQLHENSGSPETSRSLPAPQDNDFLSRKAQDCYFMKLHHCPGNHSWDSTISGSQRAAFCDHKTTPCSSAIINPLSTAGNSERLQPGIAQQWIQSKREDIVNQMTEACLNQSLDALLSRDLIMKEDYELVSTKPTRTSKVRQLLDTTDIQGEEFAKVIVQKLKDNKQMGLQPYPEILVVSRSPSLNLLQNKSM
Sequence of CDK4/Cyclin D3 (P11802 whole entry): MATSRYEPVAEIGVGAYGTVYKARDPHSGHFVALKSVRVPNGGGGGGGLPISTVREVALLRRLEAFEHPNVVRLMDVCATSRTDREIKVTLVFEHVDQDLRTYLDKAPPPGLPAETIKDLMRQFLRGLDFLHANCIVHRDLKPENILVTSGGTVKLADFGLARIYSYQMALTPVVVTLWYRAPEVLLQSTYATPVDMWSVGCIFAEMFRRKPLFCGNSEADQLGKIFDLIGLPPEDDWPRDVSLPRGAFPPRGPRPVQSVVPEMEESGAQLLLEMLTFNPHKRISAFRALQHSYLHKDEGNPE
Sequence of CDK4/Cyclin D3 (P30281 whole entry, further chain): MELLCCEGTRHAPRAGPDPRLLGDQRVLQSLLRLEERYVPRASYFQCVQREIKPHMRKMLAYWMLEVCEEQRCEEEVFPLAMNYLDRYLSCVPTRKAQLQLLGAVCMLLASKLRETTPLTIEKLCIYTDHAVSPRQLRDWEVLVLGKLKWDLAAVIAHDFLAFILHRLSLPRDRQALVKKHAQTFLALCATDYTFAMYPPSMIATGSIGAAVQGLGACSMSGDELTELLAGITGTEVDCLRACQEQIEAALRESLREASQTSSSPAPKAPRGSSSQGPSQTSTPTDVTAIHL
Sequence of Tyrosine-protein kinase BTK (Q06187 whole entry): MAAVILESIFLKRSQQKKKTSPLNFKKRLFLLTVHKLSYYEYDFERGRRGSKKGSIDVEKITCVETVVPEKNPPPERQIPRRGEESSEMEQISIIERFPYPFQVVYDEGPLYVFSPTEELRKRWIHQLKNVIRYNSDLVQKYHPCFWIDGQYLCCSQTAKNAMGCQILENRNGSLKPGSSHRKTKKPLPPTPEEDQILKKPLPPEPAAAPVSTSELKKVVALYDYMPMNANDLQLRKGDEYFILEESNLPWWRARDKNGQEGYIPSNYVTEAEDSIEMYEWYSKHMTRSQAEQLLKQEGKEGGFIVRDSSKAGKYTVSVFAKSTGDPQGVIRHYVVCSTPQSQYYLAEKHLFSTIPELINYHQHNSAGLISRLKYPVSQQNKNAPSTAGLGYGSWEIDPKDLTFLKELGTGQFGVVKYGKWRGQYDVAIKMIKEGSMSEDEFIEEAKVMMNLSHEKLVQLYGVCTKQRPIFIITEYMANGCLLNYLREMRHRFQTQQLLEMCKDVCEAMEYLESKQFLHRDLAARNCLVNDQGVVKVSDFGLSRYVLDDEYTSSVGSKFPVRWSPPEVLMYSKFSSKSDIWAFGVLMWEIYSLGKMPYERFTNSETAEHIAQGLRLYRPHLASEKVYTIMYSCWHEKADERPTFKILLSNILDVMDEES

Cn1cc(-c2cccc(NC(=O)c3cc4c(nc3OC3CC3)OC(C)(C)C4)n2)cn1
clearance [1]: 43 mL/min/kg | bioavailability [2]: 1.6%

Cn1cc(-c2cccc(NC(=O)c3cc4c(nc3O[C@H]3C[C@@H](O)C3)OC(C)(C)C4)n2)cn1
clearance [1]: 12 mL/min/kg | bioavailability [2]: 21% | IC50 [3]: > 30000 nM | IC50 [4]: > 30000 nM | IC50 [5]: 25700 nM | IC50 [6]: > 30000 nM | IC50 [7]: 2990 nM | IC50 [8]: > 30000 nM | IC50 [9]: 9 nM | IC50 [10]: 788 nM | IC50 [11]: 34 nM | IC50 [12]: > 30000 nM | IC50 [13]: 11 nM | IC50 [14]: > 30000 nM | IC50 [15]: 26500 nM | IC50 [16]: > 30000 nM | IC50 [17]: > 30000 nM | IC50 [18]: 16500 nM | IC50 [19]: > 30000 nM | IC50 [20]: > 30000 nM | IC50 [21]: 4690 nM | IC50 [22]: 8350 nM | Kd [23]: 13 nM | fraction unbound [24]: 0.01 | fraction unbound [25]: 0.02 | fraction unbound [26]: 0.03 | IC50 [27]: 1200 nM | IC50 [28]: 214 nM | IC50 [29]: 560 nM | IC50 [30]: 495 nM | IC50 [31]: 130 nM | IC50 [32]: 54.1 nM | inhibition [33]: Active | LBF [34]: < 30% | Activity [35]: Toxic | Activity [36]: Toxic | Activity [37]: Toxic

Cn1cc(-c2cccc(NC(=O)c3cc4c(nc3O[C@@H]3CCOC3)OC(C)(C)C4)n2)cn1
clearance [1]: 31 mL/min/kg | bioavailability [2]: 6.2%

Cn1cc(-c2cccc(NC(=O)c3cc4c(nc3OC3CCCC3)OC(C)(C)C4)n2)cn1
IC50 [38]: 5.7 nM

COc1nc2c(cc1C(=O)Nc1cccc(-c3cnn(C)c3)n1)CC(C)(C)O2
IC50 [38]: 51 nM

CC(C)Oc1nc2c(cc1C(=O)Nc1cccc(-c3cnn(C)c3)n1)CC(C)(C)O2
IC50 [38]: 5.8 nM | clearance [1]: 44 mL/min/kg | bioavailability [2]: 7.5%

CN1CCC(Oc2nc3c(cc2C(=O)Nc2cccc(-c4cnn(C)c4)n2)CC(C)(C)O3)C1 (stereo unspecified)
IC50 [38]: 74 nM

Cn1cc(-c2cccc(NC(=O)c3cc4c(nc3OC3COC3)OC(C)(C)C4)n2)cn1
clearance [1]: 58 mL/min/kg | bioavailability [2]: 1.5%

CCOc1nc2c(cc1C(=O)Nc1cccc(C(F)(F)F)n1)CC(C)(C)O2
IC50 [38]: 194 nM

CCOc1nc2c(cc1C(=O)Nc1cccc(C(F)F)n1)CC(C)(C)O2
IC50 [38]: 48 nM

CCOc1nc2c(cc1C(=O)Nc1cccc(C)n1)CC(C)(C)O2
IC50 [38]: 112 nM

CCOc1nc2c(cc1C(=O)Nc1cnn3cccnc13)CC(C)(C)O2
IC50 [38]: 96 nM

CCOc1nc2c(cc1C(=O)Nc1cccc(OC)n1)CC(C)(C)O2
IC50 [38]: 87 nM

CNCCOc1nc2c(cc1C(=O)Nc1cccc(-c3cnn(C)c3)n1)CC(C)(C)O2
IC50 [38]: 111 nM

Cn1cc(-c2cccc(NC(=O)c3cc4c(nc3OC3CCNC3)OC(C)(C)C4)n2)cn1 (stereo unspecified)
IC50 [38]: 379 nM

CCOc1nc2c(cc1C(=O)Nc1cccc(-c3cnn(C)c3)n1)CC(C)(C)O2
clearance [1]: 43 mL/min/kg | bioavailability [2]: 3.6%

CCOc1nc2c(cc1C(=O)Nc1cccc(-c3ccnn3C)n1)CC(C)(C)O2
IC50 [38]: 75 nM

CCOc1nc2c(cc1C(=O)Nc1cnn(C)c1)CC(C)(C)O2
IC50 [38]: > 6000 nM

Cn1cc(-c2cccc(NC(=O)c3cc4c(nc3OC3CCC3)OC(C)(C)C4)n2)cn1
IC50 [38]: 6 nM | clearance [1]: 41 mL/min/kg | bioavailability [2]: 3.1%

CCOc1nc2c(cc1C(=O)Nc1cccc(-c3ccn(C)n3)n1)CC(C)(C)O2
IC50 [38]: 1370 nM

Cn1cc(-c2cccc(NC(=O)c3cc4c(nc3O[C@H]3C[C@H](O)C3)OC(C)(C)C4)n2)cn1
clearance [1]: 18 mL/min/kg | bioavailability [2]: 11%
